Measured values taken from patent US20040266766A1, “Selective urokinase inhibitors” (Wilex AG, priority 2001, published 2004).
Where a name gives a salt, the structure may show the parent alone. Read-outs that look alike come from different tables or passages of the source.

How the values were obtained:
[1] = biological target: T1, urokinase (uPA) (Homo sapiens, UniProt P00749); test: In vitro inhibition of urokinase (Ki according to Dixon, chromogenic substrate); assay type: biochemical
T1 construct: purchased Calbiochem-Novabiochem GmbH, Bad Soden, Germany
Outline: (§1)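 Chromogenic read-out in 0.05 mol/l Tris, 0.154 mol/l NaCl, pH 8.0, with inhibitor, substrate (Pefachrome uPA, Pefachrome PL or Pefabloc TH) and protease, incubated 10 min at 30 °C. Absorbance at 405 nm was read after ca. 30 min (30 cycles). Ki was derived by Dixon linear regression.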

[2] = biological target: T2, Plasmin (Homo sapiens, UniProt P00747); test: In vitro inhibition of plasmin (Ki according to Dixon); assay type: biochemical
Outline: as §1

[3] = biological target: T3, Thrombin (Homo sapiens, UniProt P00734); test: In vitro inhibition of thrombin (Ki according to Dixon); assay type: biochemical
Outline: as §1

[4] = biological target: PK (Homo sapiens, UniProt P03952); test: In vitro inhibition of PK (Ki); assay type: biochemical; settings: summary table
Outline: as §1

[5] = biological target: T4, urokinase (Homo sapiens, UniProt P00749); test: In vitro inhibition of urokinase by WX-508 (Example 15); assay type: biochemical
T4 construct: purchased Calbiochem-Novabiochem GmbH, Bad Soden, Germany
Protocol: (§2) In order to determine the uPA inhibitory activity, 200 μl Tris-buffer (0.05 mol/l containing the inhibitor, 0.154 mol/l NaCl, pH 8.0), 25 μl substrate (Pefachrome uPA or BZ-O-Ala-Gly-Arg-pNA in H2O; Pentapharm Ltd., Basle, Switzerland) and 50 μl urokinase (Calbiochem-Novabiochem GmbH, Bad Soden, Germany) or another appropriate protease are incubated at 30° C. After ca. 30 minutes and 30 cycles the absorption is determined at 405 nm by means of a microplate reader (Mediators PHL, Aureon Biosystems, Vienna, Austria). The Ki values were determined according to Dixon by linear regression using a computer program.

[6] = biological target: T2, Plasmin; test: In vitro inhibition of plasmin by WX-508 (Example 15); assay type: biochemical
Protocol: as §2

[7] = biological target: T3, Thrombin; test: In vitro inhibition of thrombin by WX-508 (Example 15); assay type: biochemical
Protocol: as §2

[8] = system: Caco-2 cell monolayers; test: Caco-assay: transport across Caco-2 cell monolayers; assay type: in vitro ADME, human; settings: for % amount in the basolateral compartment: 10 μg/ml apical, four hours; for Caco-2 assay % basolateral: first series
Outline: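 Caco-2 monolayers grown three weeks on 0.4 μm polycarbonate filters; compounds applied apically at 10 μg/ml in HBSS/30 mM HEPES pH 7.2 for 4 h. Apical and basolateral samples quantified by scintillation counting, integrity checked by TEER; triplicate experiments.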

[9] = Oral bioavailability and plasma kinetics in mice (serum concentration); assay type: in vivo, Balb/c mice; settings: mouse; for concentration at 20 min / concentration at 40 min / concentration at 60 min: female, Balb/c, serum, po; for concentration at 20 min: sample at 20 minutes; for concentration at 40 min: sample at 40 minutes; for concentration at 60 min: sample at 60 minutes; for c in the serum 1st analysis / c in the serum 2nd analysis: 10 mg/kg i.v.
[10] = 30 mg/kg, 30 mg/kg oral, read-out: c in the serum 1st analysis
[11] = 30 mg/kg, 30 mg/kg oral, read-out: c in the serum 2nd analysis
[12] = 300 mg/kg, 300 mg/kg oral, read-out: c in the serum 1st analysis
[13] = 300 mg/kg, 300 mg/kg oral, read-out: c in the serum 2nd analysis

T2 sequence (P00747 581-810 limits assumed, species assumed): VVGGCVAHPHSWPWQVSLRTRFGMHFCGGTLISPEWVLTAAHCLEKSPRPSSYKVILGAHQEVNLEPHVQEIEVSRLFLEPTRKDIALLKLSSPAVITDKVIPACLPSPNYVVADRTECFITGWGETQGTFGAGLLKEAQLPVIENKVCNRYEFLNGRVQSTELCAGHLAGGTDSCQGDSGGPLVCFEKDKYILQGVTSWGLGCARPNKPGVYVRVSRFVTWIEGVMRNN
T2 sequence (P00747 97-580 partner limits assumed, species assumed): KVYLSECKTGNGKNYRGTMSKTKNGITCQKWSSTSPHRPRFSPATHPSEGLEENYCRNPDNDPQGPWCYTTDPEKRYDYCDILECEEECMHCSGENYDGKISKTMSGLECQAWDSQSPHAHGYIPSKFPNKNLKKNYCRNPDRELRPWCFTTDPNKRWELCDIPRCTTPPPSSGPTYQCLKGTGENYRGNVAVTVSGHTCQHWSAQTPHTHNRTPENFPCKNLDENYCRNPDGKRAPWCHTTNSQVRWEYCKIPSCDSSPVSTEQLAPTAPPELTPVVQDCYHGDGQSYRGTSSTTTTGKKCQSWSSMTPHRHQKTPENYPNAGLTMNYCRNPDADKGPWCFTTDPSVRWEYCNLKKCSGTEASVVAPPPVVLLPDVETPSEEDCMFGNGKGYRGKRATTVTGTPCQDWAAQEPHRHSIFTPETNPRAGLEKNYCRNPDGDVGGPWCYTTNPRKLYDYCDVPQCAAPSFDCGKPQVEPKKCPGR
Chain of PK (P03952 20-638): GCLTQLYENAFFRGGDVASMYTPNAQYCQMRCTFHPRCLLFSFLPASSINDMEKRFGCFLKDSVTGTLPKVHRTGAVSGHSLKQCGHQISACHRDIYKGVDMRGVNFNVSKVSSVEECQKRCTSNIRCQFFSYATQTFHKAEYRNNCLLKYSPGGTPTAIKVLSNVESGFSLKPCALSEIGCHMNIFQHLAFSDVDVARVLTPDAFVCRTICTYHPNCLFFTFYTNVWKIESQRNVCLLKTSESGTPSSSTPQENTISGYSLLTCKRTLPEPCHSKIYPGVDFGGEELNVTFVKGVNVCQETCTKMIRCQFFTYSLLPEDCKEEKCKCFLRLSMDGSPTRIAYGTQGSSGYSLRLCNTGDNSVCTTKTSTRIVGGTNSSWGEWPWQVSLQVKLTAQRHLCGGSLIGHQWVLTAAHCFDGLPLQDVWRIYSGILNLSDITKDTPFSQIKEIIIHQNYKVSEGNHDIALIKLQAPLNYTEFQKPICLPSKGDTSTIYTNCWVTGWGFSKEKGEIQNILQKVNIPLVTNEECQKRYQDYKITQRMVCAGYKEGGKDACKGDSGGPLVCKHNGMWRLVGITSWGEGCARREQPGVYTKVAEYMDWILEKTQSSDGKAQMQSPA

Ki ([1]; list of test substances of Example 17, read-out: Ki human uPA): 0.034 µM
Ki ([1]; read-out: Ki uPA): 0.034 µM
Ki ([1]; summary table, read-out: Ki uPA): 0.034 µM
Ki [2]: > 200 µM
Ki ([2]; summary table): > 200 µM
Ki [3]: > 350 µM
Ki ([3]; summary table): > 350 µM
Ki [4]: 180 µM
Ki [5]: 0.04 µM
Ki [6]: > 1000 µM
Ki [7]: > 1000 µM
% amount in the basolateral compartment ([8]; first value column): 0.2%
% amount in the basolateral compartment ([8]; second value column): 0.1%
% amount in the basolateral compartment ([8]; third value column): 0.7%
Caco-2 assay % basolateral ([8]; first value): 0.2%
Caco-2 assay % basolateral ([8]; second value): 0.1%
Caco-2 assay % basolateral ([8]; third value): 0.7%
concentration at 20 min [9, 10]: 300 ng/mL
concentration at 20 min [9, 11]: 300 ng/mL
concentration at 40 min [9, 10]: 5700 ng/mL
concentration at 40 min [9, 11]: 4500 ng/mL
concentration at 60 min [9, 10]: 80 ng/mL
concentration at 60 min [9, 11]: 90 ng/mL
concentration at 20 min [9, 12]: 3500 ng/mL
concentration at 40 min [9, 12]: 7500 ng/mL
concentration at 40 min [9, 13]: 8300 ng/mL
concentration at 60 min [9, 12]: 5400 ng/mL
concentration at 60 min [9, 13]: 5800 ng/mL
c in the serum 1st analysis ([9]; time of sample collection 0): 41.1 µg/mL
c in the serum 2nd analysis ([9]; time of sample collection 0): 55.5 µg/mL
c in the serum 1st analysis ([9]; time of sample collection 10): 4.3 µg/mL
c in the serum 2nd analysis ([9]; time of sample collection 10): 4.7 µg/mL
c in the serum 1st analysis ([9]; time of sample collection 30): 0.7 µg/mL
c in the serum 2nd analysis ([9]; time of sample collection 30): 0.2 µg/mL
SMILES: N=C(N)Nc1ccc(CNC(=O)CNC(=O)[C@@H](CO)NS(=O)(=O)Cc2ccccc2)cc1 [WX-508, benzylsulfonyl-(D)-Ser-Gly-(4-guanidinobenzyl)amide hydrochloride]
